Test [1] has as its system HT1080 cells. Kind of test: Labelling of cells with GSAO-B (lysate SDS-PAGE, avidin-peroxidase blot, PDI Western blot). In kind it is cell-based, human. Conditions: 5-fold molar excess (50 μM) of dimercaptopropanol. The protocol: HT1080 cells were for 20 h with 1 μg.mL^−1 camptothecin and labeled with 10 μM GSAO and annexin V-PE as described above for labelling with GSAO-F and annexin V-PE. Cells were sorted on the basis of their annexin V-PE fluorescence, washed three times with PBS and 4×10^4 cells were lysed in 40 μL of RIPA buffer (50 mM Tris-HCl, 0.5 M NaCl, 1% Triton X-100, 1% sodium deoxycholate, 0.1% SDS, 10 μM leupeptin, 10 μM aprotinin, 2 mM phenylmethylsulfonyl fluoride, 5 mM EDTA, pH 8.0) at 4° C. Equal amounts of lysate were electrophoresed on an 8-16% gradient SDS-polyacrylamide gel (Gradipore, Sydney), transferred to […] (PVDF) membrane (Millipore, Bedford, Mass.) and biotinylated proteins were detected with a 1:2000 dilution of avidin-peroxidase (Molecular Probes, Eugene, Oreg.). To identify proteins that had incorporated GSAO-B, 20 μl of RIPA lysate was incubated with 5 μl streptavidin-dynabeads (Dynal Biotech, Oslo, Norway) for 15 min at 4° C. The beads were then washed twice with RIPA buffer, resuspended in 20 μl SDS-PAGE loading buffer, resolved on SDS-PAGE, transferred to polyvinylidene difluoride membrane, and the PDI was detected by Western blot using 2 μg.mL^−1 of anti-PDI polyclonal antibodies (Donoghue et al., 2000) and 1:2000 dilution of goat anti-rabbit peroxidase-conjugated antibodies (Dako Corporation, Carpinteria, Calif.). […]

The test system of test [2] is human BxPC-3 pancreatic carcinoma tumours. Kind of test: In vivo near-infrared imaging of BxPC-3 tumours. Set-up: species or system SCID mice. Conditions: 0.8 mg/kg S.C. The protocol: (§1) C57BL/6 (Jackson Labs, Bar Harbor, ME) mice bearing S.C. Lewis lung tumours, SCID (Massachusetts General Hospital, Boston, Mass.) bearing S.C. BxPC3 tumours or TRAMP (Greenberg et al., 1995) mice were given 0.8 mg/kg GSAO-Cy™5.5, GSAA-Cy™5.5 or Cy™5.5 dye alone in 0.1 mL of PBS containing 20 mM glycine by S.C. injection in the right hind flank. The S.C. tumours were established in the proximal dorsum.
(§2) The imaging system utilised a Leica Microsystems fluorescence microscope (Allendale, N.J.) with a 100 W halogen lamp source and a filter system for CY™5.5 (Chroma Technology, Brattleboro, Vt.). Anaesthetised mice were restrained in a light proof box and fluorescence detected by a 12-bit monochrome charged coupled device (Photometrics, Tuscon, Ariz.). Exposure time was 8 seconds with images digitally acquired as 16-bit Tiff files in IPLab (Scanalytics, Fairfax, Va.). White light images of the tumours were also acquired.

Test [3] has as its system murine Lewis lung tumours. Kind of test: In vivo near-infrared imaging of Lewis lung tumours. Set-up: species or system C57BL/6 mice. Conditions: 0.8 mg/kg S.C. The protocol: as §1, §2
The test system of test [4] is HT1080 cells. In words: Confocal microscopy of GSAO- and annexin V-labelled cells. In kind it is cell-based, human. Conditions: camptothecin-treated; 10 μM GSAO-F. The protocol: HT1080 cells were treated for 20 h with 1 μg.mL^−1 camptothecin, then detached with PBS containing 10 mM EDTA, washed with annexin V binding buffer, and incubated for 15 min in annexin V binding buffer containing 10 μM GSAO-F and 1:20 (v/v) Alexa594conjugated annexin V (Molecular Probes, Eugene, Oreg.). The cells were then washed twice with annexin V binding buffer and pipetted onto a microscope slide. Transverse cell sections were captured using an Olympus BX60 microscope and an Optiscan F900e confocal unit and software (Optiscan, Notting Hill, Austrlia).

The test system of test [5] is HT1080 cells. Kind of test: Flow cytometry of GSAO- and annexin V-labeled cells. In kind it is cell-based, human. The procedure:
HT1080 cells were treated for 20 h with 1 μg.mL^−1 camptothecin (Calbiochem, San Diego, Calif.), then detached with PBS containing 2.5 mM EDTA and combined with cells that had detached during incubation. The cells were washed twice with annexin V binding buffer (10 mM Hepes, 140 mM NaCl, 2.5 mM CaCl2, pH 7.4), and 2×10^5 cells per treatment were incubated in 100 μL annexin V binding buffer containing 10 μM GSAO-F or GSAA-F for 15 min at room temperature with shaking. The cells were washed twice, then incubated for 15 min in 100 μL annexin V binding buffer containing 5 μl phycoerythrin-conjugated annexin V (annexin V-PE) (PharMingen, San Diego, Calif.) and 1 μl of a 100 μg.mL^−1 solution of propidium iodide (Molecular Probes, Eugene, Oreg.). The total volume was then made up to 500 μl with annexin V binding buffer, and the samples were transferred to ice. Flow cytometry was performed using a FACSstar flow cytometer (Beckton Dickson). Results are derived from 10^4 cells per sample. To test the effect of caspase inhibition on to GSAO-F uptake, cells were treated with camptothecin in the absence or presence of 10 μg.mL^−1 Z-VAD-FMK (carbobenzoxy-valyl-alanyl-aspartyl-[O-methyl]-fluoromethylketone) (Calbiochem-Novabiochem, San Diego, Calif.), then detached, washed and incubated in annexin V binding buffer containing 10 μM GSAO-F for 15 min. The cells were washed twice and subjected to flow cytometry.
A general note: Flow cytometry measures light scatter and fluorescence of single cells or particles in a stream.

Residues, ends and D or L forms follow the SMILES beside them. *: point of attachment. Cbz = O=C(OCc1ccccc1)*; CH2F = FC*

Turning to `OCC(S)CS` (centres unmarked) [dimercaptopropanol, 2,3-dimercaptopropanol, reference compound], in the test with HT1080 cells [1], the “effect on labelling of apoptotic cellular proteins by GSAO-B” value was “ablated”.

As to Cy™5.5, the “tumour labelling at 24 hours” value in test [2] is “Neither GSAA-Cy™5.5 (FIG. 11d(B)) nor Cy™5.5 (FIG. 11d(D)) labelled BxPC3 tumours”. Besides, in test [3], the “labelling of Lewis lung tumours by controls” value is “Neither GSAA-Cy™5.5 nor Cy™5.5 labelled”.

As for `O=[As]c1ccc(NC(=O)CSC[C@H](NC(=O)CC[C@H](NC(=O)CCSCC(=O)Nc2ccc(-c3c4ccc(=O)cc-4oc4cc(O)ccc34)c(C(=O)O)c2)C(=O)O)C(=O)NCC(=O)O)cc1` (some centres unmarked) [GSAO-F], in the test with HT1080 cells [4], the “distribution in annexin V-positive cells” value is on record as “distributed in the cytoplasm” and the “fluorescence in cells that did not label with annexin V” value is “negligible”. Moreover, the “increase in the proportion of cells whose fluorescein fluorescence was greater than 1027 units” value with HT1080 cells [5] (10 μM label, 15 min, camptothecin-treated vs untreated cells) was 8.6 fold. Also, the mean fluorescein fluorescence in the test with HT1080 cells [5] (camptothecin-treated cell population, 10 μM label) is 1400 units. For the same compound, the mean fluorescein fluorescence with HT1080 cells [5] (untreated cells, 10 μM label) was determined as 255 units. Also, the “binding to apoptotic and dead cells” value in the test with HT1080 cells [5] (with annexin V-PE and propidium iodide) was “bound to both apoptotic and dead cells”.

With `CC[C@@]1(O)C(=O)OCc2c1cc1n(c2=O)Cc2cc3ccccc3nc2-1` [camptothecin, reference compound], the “increase in the proportion of cells with phycoerythrin fluorescence greater than 100 fluorescence units (annexin V-positive)” value with HT1080 cells [5] (camptothecin 1 μg.mL−1, 20 h vs untreated) was determined as 7.3 fold.

For the compound `COC(=O)C[C@H](NC(=O)[C@H](C)NC(=O)[C@@H](NC(=O)OCc1ccccc1)C(C)C)C(=O)CF` [Z-VAD-FMK, carbobenzoxy-valyl-alanyl-aspartyl-[O-methyl]-fluoromethylketone, reference compound] (Cbz-Val-Ala-Asp(OMe)-CH2F), in the test with HT1080 cells [5] (Z-VAD-FMK 10 μg.mL−1 during camptothecin treatment), the “effect on the increase in GSAO-F positive cells seen with camptothecin treatment” value is recorded as “substantially blocked”.
